Laboratory results as given in ChEMBL document CHEMBL1142366, “Synthesis of pyrimidine and quinolone conjugates as a scaffold for dual inhibitors of HIV reverse transcriptase and integrase” (Bioorg Med Chem Lett, 2008).
pEC50, pIC50: −log10 of the molar value.

Biological target: not listed separately
Test: Inhibition of HIV reverse transcriptase
Set-up: species or system Human immunodeficiency virus
Conditions: not given

Row | Compound | pIC50
1 | CC(C)c1c(Cc2ccccc2)n(COCc2ccc3c(c2)c(=O)c(C(=O)O)cn3C)c(=O)[nH]c1=O | 5.59
2 | CCn1cc(C(=O)O)c(=O)c2cc(COCn3c(Cc4ccccc4)c(C(C)C)c(=O)[nH]c3=O)ccc21 | 5.96
3 | CC(C)c1c(Cc2ccccc2)n(COCc2ccc3[nH]cc(C(=O)O)c(=O)c3c2)c(=O)[nH]c1=O | 6.72
4 | CC(C)c1c(Cc2ccccc2)n(COCc2ccc3c(c2)c(=O)c(C(=O)O)cn3CCO)c(=O)[nH]c1=O | 5.43

Biological target: not listed separately
Test: Inhibition of HIV integrase
Set-up: species or system Human immunodeficiency virus
Conditions: not given

Row | Compound | pIC50
5 | CC(C)c1c(Cc2ccccc2)n(COCc2ccc3c(c2)c(=O)c(C(=O)O)cn3C)c(=O)[nH]c1=O | 4.39
6 | CCn1cc(C(=O)O)c(=O)c2cc(COCn3c(Cc4ccccc4)c(C(C)C)c(=O)[nH]c3=O)ccc21 | 4.29
7 | CC(C)c1c(Cc2ccccc2)n(COCc2ccc3[nH]cc(C(=O)O)c(=O)c3c2)c(=O)[nH]c1=O | 4.46
8 | CC(C)c1c(Cc2ccccc2)n(COCc2ccc3c(c2)c(=O)c(C(=O)O)cn3CCO)c(=O)[nH]c1=O | 4.72

Test system: Human immunodeficiency virus
Test: Antiviral activity against HIV by cell based assay
Type: functional, organism-based
Conditions: Human immunodeficiency virus 1

Row | Compound | pEC50
9 | CC(C)c1c(Cc2ccccc2)n(COCc2ccc3c(c2)c(=O)c(C(=O)O)cn3C)c(=O)[nH]c1=O | 6.68
10 | CCn1cc(C(=O)O)c(=O)c2cc(COCn3c(Cc4ccccc4)c(C(C)C)c(=O)[nH]c3=O)ccc21 | 5.82
11 | CC(C)c1c(Cc2ccccc2)n(COCc2ccc3[nH]cc(C(=O)O)c(=O)c3c2)c(=O)[nH]c1=O | 6.66
12 | CC(C)c1c(Cc2ccccc2)n(COCc2ccc3c(c2)c(=O)c(C(=O)O)cn3CCO)c(=O)[nH]c1=O | 5.66
